Here are results for 1 substance from PMC3222276 (ACS chemical biology, 2010).

A word on the IC50: it is the concentration that inhibits the measured activity by half.

One assay concerns the target cathepsin B (Homo sapiens, UniProt P07858). In words: Inhibition of recombinant cathepsin B. As to conditions: read-out: Cathepsin B IC50; enzyme 360nM, substrate 50μM, pH 6.25, 30min.
In another assay the target is cathepsin L (Homo sapiens, UniProt P07711). In words: Inhibition of recombinant cathepsin L. Particulars: read-out: Cathepsin L IC50; enzyme 100nM, substrate 10μM, pH 6.25, 30min.
Chain of cathepsin L (P07711 114-333, species assumed): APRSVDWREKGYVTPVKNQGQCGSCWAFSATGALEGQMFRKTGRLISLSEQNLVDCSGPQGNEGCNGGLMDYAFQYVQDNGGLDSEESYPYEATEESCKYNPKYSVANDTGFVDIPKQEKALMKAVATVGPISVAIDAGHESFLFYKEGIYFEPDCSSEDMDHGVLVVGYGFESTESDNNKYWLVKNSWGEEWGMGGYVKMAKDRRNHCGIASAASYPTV

With JPM-OEt, the IC50 was determined as 780 nM at cathepsin B and 2980 nM at cathepsin L.
